Results on four compounds are retold here after US7902229B2, “Anthranilamide pyridinureas as vascular endothelial growth factor (VEGF) receptor kinase inhibitors” (Bayer Schering Pharma AG, priority 2004, dated 2011).

In one data set the target is T1, KDR-Kinase (VEGFR-2) (Homo sapiens, UniProt P35968).
T1 construct: GST-kinase domain fusion construct of the KDR kinase; GST
The data set is described as follows: KDR Kinase Inhibition. The note with it: GST-kinase domain fusion construct of the KDR kinase; poly(Glu4Tyr) substrate, 32P-ATP, 10 min. It is filed as biochemical. The procedure: Kinase activity was measured with a GST-kinase domain fusion construct of the KDR kinase according to the following protocol to obtain concentration response curves. Components were added into a microtiterplate in the following sequence: 10 μl of inhibitor in threefold final concentration [3% DMSO in buffer (40 mM TrisCl pH 7.5; 1 mM DTT, 1 mM MnCl2, 10 mM MgCl2, 2.5 Promille Polyethyleneglycol 20000)] and 10 μ, of substrate mixture [24 μM ATP, 24 μg/ml poly(Glu4Tyr) in buffer, specific activity approx. 500 cpm/pmol ^32P-[…]ATP]. Reaction was started by adding 10 μl of enzyme preparation diluted appropriately in buffer that contains 10 μM vanadate. After incubation for exactly 10 min the reaction was stopped by adding of 10 μl stop solution (250 mM EDTA). 10 μl of the reaction mixture were transferred to phosphocellulose filters. The filters were washed in 0.1% phosphoric acid, dried before meltilex-scintillator was applied (Wallac, Perkin-Elmer) and the radioactivity was counted.

Data set [1] deals with T2, human Cytochrome P 450 isoenzyme 2C9 (Homo sapiens, UniProt P11712).
T2 construct: host or cells: baculovirus/insect cells
T2 sequence (P11712 whole entry): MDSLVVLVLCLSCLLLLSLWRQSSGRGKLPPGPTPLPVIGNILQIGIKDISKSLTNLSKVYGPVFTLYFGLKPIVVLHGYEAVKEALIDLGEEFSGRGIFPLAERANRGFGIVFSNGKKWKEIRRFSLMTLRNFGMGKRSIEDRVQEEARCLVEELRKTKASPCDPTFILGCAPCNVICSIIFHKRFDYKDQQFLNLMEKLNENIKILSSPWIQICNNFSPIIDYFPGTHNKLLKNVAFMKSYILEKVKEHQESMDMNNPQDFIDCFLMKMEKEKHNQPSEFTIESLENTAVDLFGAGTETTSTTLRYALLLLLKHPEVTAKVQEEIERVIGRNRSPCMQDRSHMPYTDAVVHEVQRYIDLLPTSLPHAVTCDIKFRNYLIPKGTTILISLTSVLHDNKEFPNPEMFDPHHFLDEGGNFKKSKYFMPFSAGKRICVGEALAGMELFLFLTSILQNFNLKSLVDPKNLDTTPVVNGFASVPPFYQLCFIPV
The data set is described as follows: Cytochrome P450 Inhibition (2C9). Format: in vitro ADME. The note with it: baculovirus/insect cell-expressed human isoenzyme, according to Crespi et al.; read-out: IC50 CYP 2C9. How it is done:
(§1) Cytochrome P450 Inhibition
(§2) The Cytochrome P450 isoenzyme inhibition was performed according to the publication of Crespi et al. (Anal. Biochem., 1997, 248, 188-190) with use of the baculovirus/insect cell-expressed, human Cytochrome P 450 isoenzymes (2C9 and 2C19).

The target of data set [2] is T3, human Cytochrome P 450 isoenzyme 2C19 (Homo sapiens, UniProt P33261).
T3 construct: host or cells: baculovirus/insect cells
T3 sequence (P33261 whole entry): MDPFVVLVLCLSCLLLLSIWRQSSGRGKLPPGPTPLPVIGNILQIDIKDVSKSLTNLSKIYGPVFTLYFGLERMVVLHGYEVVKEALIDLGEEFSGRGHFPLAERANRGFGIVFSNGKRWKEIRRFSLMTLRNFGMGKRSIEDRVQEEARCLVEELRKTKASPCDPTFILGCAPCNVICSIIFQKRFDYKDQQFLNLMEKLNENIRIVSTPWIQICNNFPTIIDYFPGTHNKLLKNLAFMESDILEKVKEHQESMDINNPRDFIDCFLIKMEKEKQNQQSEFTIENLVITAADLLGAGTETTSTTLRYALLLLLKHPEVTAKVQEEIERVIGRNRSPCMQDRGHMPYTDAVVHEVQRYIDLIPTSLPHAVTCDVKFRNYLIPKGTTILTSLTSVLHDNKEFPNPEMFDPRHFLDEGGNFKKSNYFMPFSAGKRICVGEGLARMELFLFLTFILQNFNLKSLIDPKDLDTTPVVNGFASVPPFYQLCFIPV
The data set is described as follows: Cytochrome P450 Inhibition (2C19). Format: in vitro ADME. The note with it: baculovirus/insect cell-expressed human isoenzyme, according to Crespi et al.; read-out: IC50 CYP 2C19. How it is done: as §1, §2

T1 sequence (P35968 834-1162 limits assumed, species assumed): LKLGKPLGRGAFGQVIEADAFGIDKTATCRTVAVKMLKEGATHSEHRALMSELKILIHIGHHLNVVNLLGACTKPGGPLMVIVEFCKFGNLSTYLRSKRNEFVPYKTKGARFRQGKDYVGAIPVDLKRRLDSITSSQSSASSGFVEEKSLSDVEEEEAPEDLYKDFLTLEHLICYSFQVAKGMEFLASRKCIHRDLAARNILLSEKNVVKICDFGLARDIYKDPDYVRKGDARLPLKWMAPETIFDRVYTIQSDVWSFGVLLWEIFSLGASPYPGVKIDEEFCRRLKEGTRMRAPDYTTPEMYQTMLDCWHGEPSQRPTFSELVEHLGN

In turn, `CN(C)C(=O)Nc1cc(CNc2ccccc2C(=O)Nc2ccc3cn(C)nc3c2)ccn1` [Example 1.0, 2-{[2-(3,3-dimethyl-ureido)-pyridin-4-ylmethyl]-amino}-N-(2-methyl-2H-indazol-6-yl)-benzamide] came in with a melting point of 184 °C. This compound also returned an IC50 on KDR-Kinase (VEGFR-2) of 0.025 µM. In data set [1], the IC50 was determined as 6.7 µM. Also, the 50% inhibitory concentration (IC50) in data set [2] came to 19 µM.
For the compound `CCN(CC)C(=O)Nc1cc(CNc2ccccc2C(=O)Nc2ccc3cn(C)nc3c2)ccn1` [Example 1.1, 2-{[2-(3,3-diethyl-ureido)-pyridin-4-ylmethyl]-amino}-N-(2-methyl-2H-indazol-6-yl)-benzamide], the IC50 turned out to be 0.035 µM on KDR-Kinase (VEGFR-2), 3.8 µM in data set [1] and 9.9 µM in data set [2].
For `CCN(C)C(=O)Nc1cc(CNc2ccccc2C(=O)Nc2ccc3cn(C)nc3c2)ccn1` [Example 1.4, 2-{[2-(3-ethyl-3-methyl-ureido)-pyridin-4-ylmethyl]-amino}-N-(2-methyl-2H-indazol-6-yl)-benzamide], the IC50 at KDR-Kinase (VEGFR-2) came out at 0.024 µM; in data set [1], 6.6 µM; in data set [2], 26 µM.
In the case of `CN(C)C(=O)Nc1cc(CNc2ccccc2C(=O)Nc2ccc3c(ccc(=O)n3C)c2)ccn1` [Example 2.2, 2-{[2-(3,3-dimethyl-ureido)-pyridin-4-ylmethyl]-amino}-N-(1-methyl-2-oxo-1,2-dihydro-quinolin-6-yl)-benzamide], the IC50 against KDR-Kinase (VEGFR-2) worked out at 0.036 µM; in data set [1] it was 10 µM; in data set [2] it was 6.4 µM.

A word on the IC50: it is the midpoint of a concentration-inhibition curve. By melting point is commonly meant the temperature of the solid-liquid transition.
